# Tests used:
# [1] = system: mouse; settings: Carcinogenicity, b6c3f1, Oral, Gavage/Intubation, dose end: 18 month, group: systemic
# [2] = system: rat; settings: Prenatal developmental toxicity study, fischer, Dermal, Topical, dose end: 15 GD, group: maternal
# [3] = system: rat; settings: Carcinogenicity, fischer, Oral, Gavage/Intubation, dose end: 24 month, group: systemic
# [4] = system: rat; settings: Subchronic oral toxicity in rodents, sprague dawley, Feed, dose end: 13 week, group: systemic
# [5] = system: rabbit; settings: Prenatal developmental toxicity study, new zealand white, Oral, Gavage/Intubation, dose end: 19 GD
# [6] = system: rat; settings: Prenatal developmental toxicity study, other, Oral, Gavage/Intubation, dose end: 15 GD
# [7] = system: rat; settings: Combined chronic toxicity/carcinogenicity, wistar, Oral, Feed, dose end: 2 year, group: systemic
# [8] = system: rat; settings: Subchronic oral toxicity in rodents, wistar, Feed, dose end: 13 week, group: systemic, systemic / clinical chemistry / [other] / [other] + systemic / clinical chemistry / alkaline phosphatase (alp/alk) / alkaline phosphatase (…
# [9] = system: mouse; settings: Carcinogenicity; other; Oral; Feed; dose end: 24 month; group: systemic; systemic / clinical chemistry / alkaline phosphatase (alp/alk) / alkaline phosphatase (alp/alk) + systemic / organ weight / heart / nos + …
# [10] = system: mouse; settings: Subchronic oral toxicity in rodents, other, Feed, dose end: 13 week, group: systemic
# [11] = system: rat; settings: Multigenerational reproductive toxicity study, sprague dawley, Oral, Feed, dose end: 2 generation
# [12] = system: rat; settings: Combined chronic toxicity/carcinogenicity, other, Oral, Feed, dose end: 2 year, group: systemic
# [13] = system: dog; settings: Chronic toxicity, beagle, Oral, Feed, dose end: 15 month, group: systemic
# [14] = system: dog; settings: Chronic toxicity, beagle, Injection, Subcutaneous, dose end: 74 week, group: systemic
# [15] = system: rat; settings: Developmental neurotoxicity study; other; Injection; Intraperitoneal; dose end: 141 PND; group: cannot be grouped; systemic / clinical chemistry / norepinephrine (noradrenaline) / norepinephrine (noradrenaline) + systemic / in life observation / water …
# [16] = system: rat; settings: Developmental neurotoxicity study; wistar; Oral; Water; dose end: 60 PND; group: cannot be grouped; systemic / in life observation / body weight / offspring (pup) weight gain
# [17] = system: rat; settings: Multigenerational reproductive toxicity study, other, Oral, Feed, dose end: 2 generation
# [18] = system: rat; settings: Subchronic oral toxicity in rodents, other, Feed, dose end: 3 month, group: systemic
# [19] = system: mouse; settings: Carcinogenicity, other, Oral, Feed, dose end: 18 month, group: systemic
# [20] = system: rat; settings: Combined chronic toxicity/carcinogenicity, other, Oral, Feed, dose end: 2 year, group: systemic; remark: listed apart in the source
# [21] = system: rabbit; settings: Prenatal developmental toxicity study, other, Oral, Gavage/Intubation, dose end: 19 GD
# [22] = system: dog; settings: Chronic toxicity; beagle; Oral; Capsule; dose end: 12 month; group: systemic; systemic / in life observation / clinical signs / fur (altered appearance) + systemic / in life observation / clinical signs / skin …
# [23] = system: dog; settings: Subchronic oral toxicity in nonrodent, beagle, Capsule, dose end: 91 day, group: systemic
# [24] = systemic / organ weight / testes / relative to body weight
# [25] = systemic / organ weight / testes / relative to body weight + systemic / pathology microscopic / liver / carcinoma + systemic / hematology / …
# [26] = systemic / in life observation / clinical signs / scabbing
# [27] = systemic / in life observation / body weight / body weight gain + systemic / in life observation / clinical signs / labored respiration + …
# [28] = systemic / organ weight / stomach / relative to body weight + systemic / in life observation / body weight / body weight gain
# [29] = systemic / clinical chemistry / alanine aminotransferase (alt/sgpt) / alanine aminotransferase (alt/sgpt) + systemic / clinical chemistry / …
# [30] = systemic / urinalysis / appearance and color / appearance and color + systemic / organ weight / liver / relative to body weight
# [31] = group: developmental, developmental / developmental malformation / general / [other] + developmental / developmental malformation / bone / arthrogryposis + …
# [32] = group: maternal, systemic / in life observation / body weight / body weight + systemic / in life observation / food consumption / food efficiency + systemic…
# [33] = group: developmental, developmental / developmental malformation / bone / incomplete ossification + developmental / developmental malformation / bone / unossified
# [34] = group: maternal, reproductive / reproductive performance / aborted / aborted + systemic / in life observation / body weight / body weight + systemic / in …
# [35] = systemic / clinical chemistry / albumin / albumin + systemic / clinical chemistry / alkaline phosphatase (alp/alk) / alkaline phosphatase (…
# [36] = systemic / pathology microscopic / liver / necrosis
# [37] = systemic / pathology microscopic / liver / necrosis + systemic / clinical chemistry / [other] / [other] + systemic / pathology microscopic…
# [38] = group: offspring, developmental / developmental landmark / eye opening / eye opening + developmental / developmental landmark / incisor eruption / incisor …
# [39] = group: offspring, systemic / organ weight / adrenal gland / absolute
# [40] = group: parental, systemic / organ weight / uterus / absolute
# [41] = systemic / pathology microscopic / lung / cholesterol cleft(s) + systemic / pathology microscopic / lung / foam cell aggregation
# [42] = systemic / pathology microscopic / lung / cholesterol cleft(s) + systemic / pathology microscopic / lung / foam cell aggregation + systemic…
# [43] = systemic / pathology gross / liver / accentuated lobular pattern + systemic / pathology microscopic / liver / fatty change
# [44] = systemic / pathology gross / liver / accentuated lobular pattern + systemic / pathology microscopic / liver / fatty change + systemic / …
# [45] = systemic / clinical chemistry / cholesterol / cholesterol + systemic / clinical chemistry / glucose / glucose + systemic / hematology / […
# [46] = systemic / clinical chemistry / cholesterol / cholesterol + systemic / hematology / [other] / [other] + systemic / hematology / hematocrit (…
# [47] = group: offspring, systemic / in life observation / body weight / offspring (pup) weight
# [48] = group: offspring, systemic / in life observation / body weight / offspring (pup) weight + developmental / developmental landmark / eye opening / eye opening
# [49] = group: parental, systemic / pathology microscopic / kidney / pigmentation + systemic / pathology microscopic / spleen / erythrophagocytosis
# [50] = group: parental, systemic / pathology microscopic / kidney / pigmentation + systemic / pathology microscopic / spleen / erythrophagocytosis + systemic / in …
# [51] = systemic / in life observation / body weight / body weight + systemic / pathology microscopic / liver / hypertrophy + systemic / pathology …
# [52] = systemic / in life observation / body weight / body weight + systemic / in life observation / body weight / body weight gain
# [53] = systemic / in life observation / body weight / body weight + systemic / in life observation / body weight / body weight gain + systemic / …
# [54] = systemic / in life observation / body weight / body weight + systemic / in life observation / body weight / body weight gain + systemic / in…
# [55] = group: developmental, developmental / developmental malformation / bone / fused
# [56] = group: maternal, systemic / in life observation / body weight / body weight gain + systemic / in life observation / food consumption / food consumption + …
# [57] = systemic / in life observation / clinical signs / vomitting + systemic / organ weight / liver / relative to body weight + systemic / …
smiles,measurement,setting,value
CCCCC(CC)CO (centres undefined) [2-Ethyl-1-hexanol],LEL,[1]; [24],50 mg/kg/day
same,NEL,[1]; [24],< 50 mg/kg/day
same,LOAEL,[1]; [25],> 750 mg/kg/day
same,NOAEL,[1]; [25],≥ 750 mg/kg/day
same,LOAEL,[2]; systemic / in life observation / clinical signs / erythema + systemic / in life observation / clinical signs / scabbing + systemic / …,840 mg/kg/day
same,LEL,[2]; [26],252 mg/kg/day
same,NEL,[2]; [26],< 252 mg/kg/day
same,LOAEL,[3]; [27],> 500 mg/kg/day
same,NOAEL,[3]; [27],≥ 500 mg/kg/day
same,LEL,[3]; [28],50 mg/kg/day
same,NEL,[3]; [28],< 50 mg/kg/day
CCC(C)Nc1c([N+](=O)[O-])cc(C(C)(C)C)cc1[N+](=O)[O-] (centres undefined) [Butralin],LOAEL,[4]; [29],50 mg/kg/day
same,NOAEL,[4]; [29],10 mg/kg/day
same,LEL,[4]; [30],10 mg/kg/day
same,NEL,[4]; [30],< 10 mg/kg/day
same,LOAEL,"[5]; group: developmental, developmental / developmental malformation / general / [other]",45 mg/kg/day
same,LEL,[5]; [31],45 mg/kg/day
same,NEL,[5]; [31],15 mg/kg/day
same,NOAEL,[5]; [31],15 mg/kg/day
same,LOAEL,"[5]; group: maternal, systemic / in life observation / body weight / body weight + systemic / in life observation / food consumption / food efficiency",135 mg/kg/day
same,LEL,[5]; [32],135 mg/kg/day
same,NEL,[5]; [32],45 mg/kg/day
same,NOAEL,[5]; [32],45 mg/kg/day
same,LEL,[6]; [33],500 mg/kg/day
same,LOAEL,[6]; [33],500 mg/kg/day
same,NEL,[6]; [33],< 500 mg/kg/day
same,NOAEL,[6]; [33],< 500 mg/kg/day
same,LEL,[6]; [34],1250 mg/kg/day
same,LOAEL,[6]; [34],1250 mg/kg/day
same,NEL,[6]; [34],500 mg/kg/day
same,NOAEL,[6]; [34],500 mg/kg/day
COC(=O)C(C)Oc1ccc(Oc2ccc(Cl)cc2Cl)cc1 (centres undefined) [Diclofop-methyl],LEL,[7]; [35],2.3 mg/kg/day
same,LOAEL,[7]; [35],2.3 mg/kg/day
same,NOAEL,[7]; [35],0.23 mg/kg/day
same,NEL,[7]; systemic / hematology / hemoglobin (hgb) / hemoglobin (hgb) + systemic / hematology / erythrocyte (rbc) count differential / erythrocyte (…,0.23 mg/kg/day
same,LEL,[8],6.32 mg/kg/day
same,LOAEL,[8],6.32 mg/kg/day
same,NOAEL,[8],1.56 mg/kg/day
same,LEL,[9],0.76 mg/kg/day
same,LOAEL,[9],0.76 mg/kg/day
same,NEL,[9],0.24 mg/kg/day
same,NOAEL,[9],0.24 mg/kg/day
same,LEL,[10]; [36],0.3 mg/kg/day
same,NEL,[10]; [36],< 0.3 mg/kg/day
same,LOAEL,[10]; [37],1 mg/kg/day
same,NOAEL,[10]; [37],0.3 mg/kg/day
same,LOAEL,[11]; [38],7.3 mg/kg/day
same,NOAEL,[11]; [38],2.1 mg/kg/day
same,LEL,[11]; [39],0.9 mg/kg/day
same,NEL,[11]; [39],< 0.9 mg/kg/day
same,LOAEL,"[11]; group: parental, systemic / organ weight / liver / absolute + systemic / organ weight / liver / relative to body weight",2.1 mg/kg/day
same,NOAEL,"[11]; group: parental, systemic / organ weight / liver / absolute + systemic / organ weight / liver / relative to body weight + systemic / organ weight / kidney / …",0.7 mg/kg/day
same,LEL,[11]; [40],0.9 mg/kg/day
same,NEL,[11]; [40],< 0.9 mg/kg/day
same,LEL,[12]; [41],0.32 mg/kg/day
same,LOAEL,[12]; [41],0.32 mg/kg/day
same,NEL,[12]; [42],0.1 mg/kg/day
same,NOAEL,[12]; [42],0.1 mg/kg/day
same,LEL,[13]; [43],0.625 mg/kg/day
same,LOAEL,[13]; [43],0.625 mg/kg/day
same,NEL,[13]; [44],0.2 mg/kg/day
same,NOAEL,[13]; [44],0.2 mg/kg/day
CC(=O)[C@H]1CC[C@H]2[C@@H]3CCC4=CC(=O)CC[C@]4(C)[C@H]3CC[C@]12C [Progesterone],LOAEL,[14]; [45],> 22.5 mg/kg/day
same,NOAEL,[14]; [45],≥ 22.5 mg/kg/day
same,LEL,[14]; [46],2.5 mg/kg/day
same,NEL,[14]; [46],< 2.5 mg/kg/day
CC(C)NCC(O)COc1cccc2ccccc12.Cl (centres undefined) [Propranolol hydrochloride],LEL,[15],5 mg/kg/day
same,LOAEL,[15],> 5 mg/kg/day
same,NEL,[15],< 5 mg/kg/day
same,NOAEL,[15],≥ 5 mg/kg/day
same,LEL,[16],10 mg/kg/day
same,LOAEL,[16],> 10 mg/kg/day
same,NEL,[16],< 10 mg/kg/day
same,NOAEL,[16],≥ 10 mg/kg/day
CO/N=C(/C(=O)OC)c1ccccc1CO/N=C(\C)c1cccc(C(F)(F)F)c1 [Trifloxystrobin],LEL,[17]; [47],65.5 mg/kg/day
same,LOAEL,[17]; [47],65.5 mg/kg/day
same,NEL,[17]; [48],4.2 mg/kg/day
same,NOAEL,[17]; [48],4.2 mg/kg/day
same,LEL,[17]; [49],55.3 mg/kg/day
same,LOAEL,[17]; [49],55.3 mg/kg/day
same,NEL,[17]; [50],3.8 mg/kg/day
same,NOAEL,[17]; [50],3.8 mg/kg/day
same,NEL,[18]; systemic / clinical chemistry / urea nitrogen / urea + systemic / urinalysis / ph / ph + systemic / clinical chemistry / glucose / glucose…,618 mg/kg/day
same,LOAEL,[18]; [51],127 mg/kg/day
same,NOAEL,[18]; [51],30.6 mg/kg/day
same,LEL,[19]; [52],35.7 mg/kg/day
same,LOAEL,[19]; [52],35.7 mg/kg/day
same,NEL,[19]; [53],3.51 mg/kg/day
same,NOAEL,[19]; [53],3.51 mg/kg/day
same,LEL,[20]; [52],29.7 mg/kg/day
same,LOAEL,[20]; [52],29.7 mg/kg/day
same,NEL,[20]; [54],9.81 mg/kg/day
same,NOAEL,[20]; [54],9.81 mg/kg/day
same,LEL,[21]; [55],500 mg/kg/day
same,LOAEL,[21]; [55],500 mg/kg/day
same,NEL,[21]; [55],250 mg/kg/day
same,NOAEL,[21]; [55],250 mg/kg/day
same,LEL,[21]; [56],50 mg/kg/day
same,LOAEL,[21]; [56],50 mg/kg/day
same,NEL,[21]; [56],10 mg/kg/day
same,NOAEL,[21]; [56],10 mg/kg/day
same,LEL,[22],50 mg/kg/day
same,LOAEL,[22],50 mg/kg/day
same,NEL,[22],5 mg/kg/day
same,NOAEL,[22],5 mg/kg/day
same,LEL,[23]; systemic / clinical chemistry / bilirubin / total bilirubin,30 mg/kg/day
same,LOAEL,[23]; [57],150 mg/kg/day
same,NEL,[23]; [57],5 mg/kg/day
same,NOAEL,[23]; [57],30 mg/kg/day

# Reference: EPA's ToxRefDB 2
